Article PMC9709778 (RSC Chemical Biology, 2022)

Target: amyloid β (Aβ42) (Homo sapiens, UniProt P05067)
Experiment: 1H-15N SOFAST-HMQC NMR chemical shift perturbation
Type: biochemical

amyloid β (Aβ42), sequence (P05067 672-713): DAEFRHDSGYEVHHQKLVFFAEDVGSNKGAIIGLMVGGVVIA

## COc1cc(OC)c(C(=O)/C=C/c2ccccc2)c(O)c1O [DDC, 2′,3′-dihydroxy-4′,6′-dimethoxychalcone]
  IC50: 10.6 ± 1.3 µM
